The text below walks through data of US20080234385A1, “Method For Inhibiting Tnf-Alpha” (CARITAS ST. ELIZABETH'S MEDICAL CENTER, priority 2005, published 2008).

“Also recorded” adds a separate entry of the source.

This experiment concerns LPS-stimulated TNF-α production. In words: LPS-stimulated TNF-α production by THP-1-derived monocytes (ELISA). The following applies: differentiated THP-1 cells, endotoxin 10 ng/ml, 24 hours; for effect on LPS-stimulated TNF-α production/synthesis (in words): rising concentrations. The experiment is classed as cell-based, human. How it is done:
The human promonocytic THP-1 cell line (American Type Culture Collection, Manassas, Va.) was maintained in suspension culture at 0.25×10^6 cells/ml in RPMI-1640 medium supplemented with 2 mM L-glutamine, 10% fetal bovine serum and 0.05 mM 2-mercaptoethanol in a humidified atmosphere of 5% CO2 in air at 37° C. Differentiation to monocytes (0.25×10^6 cells/ml) was induced by incubating cells with trans-retinoic acid (1 μM), 1.25 dihydroxy cholecalciferol (0.1 μM) and interferon-γ (0.01 mg/l) (Sigma, St. Louis, Mo.). After 3 days, cells were detached using trypsin-EDTA, washed in PBS, and 1×10^6 cells were used for each experimental condition.
Differentiated THP-1 cells were co-incubated with 10 ng/ml of purified Escherichia coli endotoxin (serotype O55: B5, Sigma Chemical Co.) and rising concentrations (0-400 μM) of either melatonin, N-acetyldopamine (NAD) or N-methyldopamine (NMD) or 3-hydroxy-4-methoxy-dopamine (HMP) (Sigma) in RPMI-1640 cell culture medium at 37° C. in a humidified atmosphere supplemented with 5% CO2. After 24-hour incubation, cell supematants were harvested, and TNF-α was measured by a sandwich enzyme linked immunosorbent assay (ELISA), according to the manufacturer's instructions (Quantikine®, R & D systems, Minneapolis, Minn., USA). The lower limit of detection for TNF-α was 1.6 pg/ml. The average intra-assay coefficient of variation for TNF-α was 5%.
(In an ELISA, binding on a coated surface is turned into a signal by an enzyme label.)

With `COc1ccc2[nH]cc(CCNC(C)=O)c2c1` [melatonin, reference compound], the “effect on LPS-stimulated TNF-α production/synthesis (in words)” value is recorded as “marked decrease in LPS-stimulated TNF-α production, which was dose dependent”. Still for that read-out and setting: the entry for `CNCCc1ccc(O)c(O)c1` [NMD, N-methyldopamine] is “suppress LPS-stimulated TNF-α synthesis by monocytic cells in a dose-dependent manner”. Take `CC(=O)NCCc1ccc(O)c(O)c1` [NAD, N-acetyldopamine]: the “effect on LPS-stimulated TNF-α production/synthesis (in words)” value was “marked decrease in LPS-stimulated TNF-α production, which was dose dependent; also recorded: suppress LPS-stimulated TNF-α synthesis by monocytic cells in a dose-dependent manner”. Besides, the “potency in blocking TNF-α production compared with NMD, HMP and melatonin” value (low-dose (1-20 μM, FIG. 1)) was “more potent in blocking TNF-α production”. With `CC(=O)NCCc1c[nH]c2ccc(O)cc12` [NAS, N-acetyl-serotonin, reference compound], the “effect on LPS-stimulated TNF-α production/synthesis (in words)” value is given as “marked decrease in LPS-stimulated TNF-α production, which was dose dependent”.
